Laboratory results: patent US4780313A (Takeda Chemical Industries, Ltd., priority 1985, dated 1988)

Experiments:
[1] = test system: Meth-A fibrosarcoma cells (Meth-A tumor cells); test: Antitumor activity, subcutaneous administration, Meth-A tumor-bearing mice (Examples 1 and 4); format: in vivo, female BALB/c mice; details: Table 4, day 21
Method: (§1) Meth-A fibrosarcoma cells (Meth-A tumor cells) (1×10^6 cells) were transplanted into each female BALB/c mice (weighing about 20 g) subcutaneously in the flank using a syringe. Seven days after tumor transplantation, mice in which tumor was larger than a certain defined size were chosen and grouped and administration of the test agent was started. The agent was administered subcutaneously in the opposite flank relative to the tumor transplantation site once daily for 10 consecutive days. Each ingredient of the test agent was dissolved in physiological saline (solvent) supplemented in a form of a single preparation with 5% of normal mouse serum in a concentration such that the dose of the solution amounted to 0.1 ml/20 g of mouse body weight. The antitumor effect was evaluated by measuring the tumor weight in each mouse 21 days after tumor transplantation, determining the average tumor weight for each group and calculating the tumor weight ratio (T/C %) between the dosed group (T; 5 animals per group) and the untreated control group (C; 5 to 10 animals per group). The daily dose of each ingredients was expressed in terms of the ingredient weight (mcg) per mouse.

[2] = Body weight gain of tumor-bearing mice, subcutaneous administration (Examples 1 and 4); format: in vivo, female BALB/c mice; details: Table 4; TMD-5 200 mcg/mouse/day alone s.c.
Method: as §1

[3] = TMD-76 200 mcg/mouse/day alone s.c. x10 days
[4] = TMD-5 200 mcg/mouse/day alone s.c. x10 days

SMILES | Tumor weight (mg) Mean ± SD [1, 3] | Tumor weight ratio (T/C %) [1, 3] | Tumor weight (mg) Mean ± SD [1, 4] | Tumor weight ratio (T/C %) [1, 4] | Body weight gain (g) (day 7 to day 21) [2]
COC(=O)CC[C@@H](NC(=O)[C@@H](NC(=O)[C@@H](C)O[C@H]1[C@H](O)[C@@H](COC(=O)CCC2=C(C)C(=O)C(OC)=C(OC)C2=O)OC(O)[C@@H]1NC(C)=O)C(C)C)C(N)=O (stereo partly drawn) [TMD-76, 6-0-[3-(2,3-dimethoxy-5-methyl-1,4-benzoquinon-6-yl)propionyl]-N-acetylmuramyl-L-valyl-D-isoglutamine methyl ester] | 5,550 ± 1,776 mg | 97% | – | – | –
CC(=O)N[C@H]1C(O)O[C@H](CO)[C@@H](O)[C@@H]1O[C@H](C)C(=O)NC(C)(C)C(=O)N[C@H](CCC(=O)O)C(N)=O (stereo partly drawn) [TMD-5, N-acetylmuramylaminoisobutyryl-D-isoglutamine] | – | – | 5,662 ± 1,097 mg | 99% | 3.0 g
